In the METLIN SMRT retention time set (Domingo-Almenara et al. 2019):

Assay: gradient 5% acetonitrile 3 min, to 50% in 2 min, to 85% in 15 min, held 3 min, 100 µL/min
Conditions: column: Zorbax Extend-C18 2.1 x 50 mm; eluents: water / acetonitrile, 0.1% formic acid
Method in brief: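 Each retention time is based on an adduct peak selected computationally and verified by manual inspection. Measurements used HPLC–quadrupole time-of-flight mass spectrometry in positive and negative ionization mode on mixtures of ~100 pure standards. Chromatography ran on a Zorbax Extend-C18 column (2.1 × 50 mm, 1.8 μm) at 100 μL/min with water and acetonitrile, each containing 0.1% formic acid, and dead and dwell volumes of 40 μL and 900 μL.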

Compound	RP-LC retention time
Cc1ccc(C)c(N2CCN(Cc3nc(-c4ccc(N5CCCCC5)nc4)no3)CC2)c1	1160 s
COc1ccc(CN2C[C@@H]3C(=O)N(Cc4ccc5c(c4)OCO5)C(=O)[C@@H]3C2)c(OC)c1	691 s
Cc1cc(C(=O)N2CCC3(CCC3OCC(N)=O)CC2)c(C)o1 (stereo unspecified)	681 s
Cc1cc(N2CCN(C)CC2)nc2ccc(NC(=O)CCC(=O)NCCC(C)C)cc12	556 s
O=C(Cc1ccc(Cl)cc1)N1CCN(C(=O)c2nnn3c2COC(c2ccccc2)C3)CC1 (stereo unspecified)	921 s
O=C(NCC(c1ccsc1)N1CCc2ccccc2C1)C(=O)NC1CCCC1 (stereo unspecified)	592 s
CC1CCCCN1CCNC(=O)C1CC(=O)N(c2ccc3c(c2)CCN3C(=O)C2CC2)C1 (stereo unspecified)	578 s
COC(=O)c1nnn(-c2ccc(Cl)cc2)c1C(=O)OC	908 s
COCCc1noc(C2CN(C(=O)c3ccoc3)C2)n1	629 s
CCN1CCN(CCCNC(=O)Cc2c(C(=O)O)c(C)cn2CC)CC1	563 s
Cc1ccc(Sc2nccnc2N2CCCC(C(=O)N3CCN(c4ccccc4C)CC3)C2)cc1 (stereo unspecified)	1330 s
O=C(NCc1ccc(Br)cc1)C1CCCN(c2ncc(-c3ccc(F)cc3)cn2)C1 (stereo unspecified)	1120 s
CS(=O)(=O)c1ccc(C(=O)N2CCN(c3ccccc3)CC2)cc1	683 s
O=C(Nc1cnn(-c2ncc(N3CCCCC3)cn2)c1)C1CCCC1	807 s
CN(CC1CCOCC1)S(=O)(=O)c1cccc(F)c1	811 s
CC1COC2(CCN(c3nc(=O)c4cc(C(F)(F)F)cc([N+](=O)[O-])c4s3)CC2)O1 (stereo unspecified)	1000 s
CC(C)c1cc(Oc2c(Br)cc(NC(=O)CC(=O)O)cc2Br)ccc1O	940 s

Compound	RP-LC retention time
COc1ccc(C2(C(=O)N3CCCC(CN4CCCC4)CC3)CC2)cc1 (stereo unspecified)	618 s
CCOC(=O)C1=C(C)NC2=C(C(=O)C(C(=O)OC)C(C)C2)C1c1cccc(OC)c1 (stereo unspecified)	846 s
Clc1ccc(Cl)c(-c2ccc(CNCc3cccs3)o2)c1	772 s
CN(C)C(=O)N1CC(c2nc(-c3ccc(F)cc3)no2)C2(CCOCC2)C1 (stereo unspecified)	790 s
CC1CCC(Nc2c(-c3cccc(F)c3)nc3ncccn23)CC1 (stereo unspecified)	905 s
O=C(Nc1nnc(-c2ccsc2)o1)c1ccc2nsnc2c1	698 s
O=C(c1csc(N2CCN(c3cccc(Cl)c3)CC2)n1)N1CCOCC1	970 s
CC(C)(C)C(O)CCNC(=O)C(=O)Nc1cccc(N2CCCCC2=O)c1 (stereo unspecified)	650 s
COc1ccc(NC(=O)C2CCN(S(=O)(=O)c3ccc4c(c3)sc(=O)n4C)CC2)cc1	817 s
O=C(CN1CCN(c2ccccn2)CC1)N1c2ccccc2CCc2ccccc21	636 s
CCn1nccc1C(=O)N1CC(n2cc(C(=O)N3CCOCC3)nn2)C1	610 s
Cn1cccc1C(=O)N1C[C@H]2C[C@H](C1)[C@H]1CCCC(=O)N1C2	639 s
CNC(=O)CCC[C@@H]1[C@H]2CCCN3CCC[C@@H](CN1C(=O)CC(C)C)[C@@H]23	568 s
COc1ccc(-c2nc3ccc(C4=NNC(=O)CC4C)cc3[nH]2)cc1 (stereo unspecified)	654 s
CCN(CC)C(=O)N1CC(n2cc(C(=O)N(C)CCOC)nn2)C1	624 s
O=C(NC1CCN(c2cc(-c3cccs3)[nH]n2)C1)c1ccc2[nH]ccc2c1 (stereo unspecified)	672 s
CCOc1cncc(C(=O)N2CCCCC2C)c1 (stereo unspecified)	725 s

Results, then the compound that gave them:

RP-LC retention time	Compound
808 s	O=C(Nc1ccc(OCc2nnc(-c3ccccc3)o2)cc1)c1ccoc1
1060 s	Cc1ccc(CNC(=O)C2CCCN(c3nc4ccsc4c(=O)n3Cc3ccc(C)cc3)C2)cc1 (stereo unspecified)
695 s	CCc1ccc(NC(=O)N2CCc3nc(C)ncc3C2)cc1
739 s	CCCN1CCN(c2ccc(-c3nc(-c4cccc(F)c4)no3)cn2)CC1
824 s	COc1ccc(CCNC(=O)c2nnc(-c3ccc(S(=O)(=O)N4CCCC4)cc3)o2)cc1OC
1040 s	CCc1ccc(N2CC(c3noc(-c4ccc(OC)cc4OC)n3)CC2=O)cc1 (stereo unspecified)
586 s	CCn1c(=O)c(C(=O)NCCCc2ccccc2)nc2cccnc21
757 s	Cc1ccc(-n2ccn3c(CCC(=O)NCCc4c[nH]c5ccccc45)nnc3c2=O)cc1C
616 s	COCc1ccc(C(=O)Nc2ccnc3ccc(Cl)cc23)o1
839 s	Cc1noc(-c2cc(=O)n(CC(=O)Nc3c(C)cccc3C)c3ccccc23)n1
1160 s	CO[C@@H](Cc1ccc(OCCc2nc(-c3ccccc3)oc2C)c2ccsc12)C(=O)O
703 s	Cc1ccc(S(=O)(=O)Nc2cccc(-c3cn4cccc(C)c4n3)c2)c(C)c1
579 s	O=C(NCc1ccccn1)C1CCCN(c2ncnc3c2oc2ccccc23)C1 (stereo unspecified)
904 s	COc1cc(OC)c(NC(=O)Cn2c(=O)n(-c3ccc(C)cc3)c(=O)c3c2cc(C)n3C)cc1Cl
685 s	Cc1ccc(C(CC(=O)NCCCN2CCCC2=O)N2Cc3ccccc3C2=O)cc1 (stereo unspecified)
858 s	CCOC(=O)c1c(NCc2ccc(F)cc2)c2ccc(Cl)cc2[nH]c1=O

RP-LC retention time	Compound
858 s	CCNC(=O)c1cn(-c2ccc(-c3nc(C(C)(C)C)no3)cn2)cn1
770 s	CN1c2cc(Cl)ccc2C(=O)NC12CCN(C(=O)Nc1ccccc1F)CC2
1110 s	COc1ccc(Cl)cc1NC(=O)c1cc2c(=O)oc3ccccc3c2n1C
809 s	Cc1ccc(C)c(NC(=O)C2CCN(C(=O)c3ncn4c3COC(c3ccc(F)cc3)C4)CC2)c1 (stereo unspecified)
741 s	O=C(Nc1ccc2c(c1)OCO2)C1CCN(C(=O)c2ccccc2F)CC1
872 s	COc1ccc(OC)c(NS(=O)(=O)c2ccc3c(c2)C(=O)N(C)c2ncccc2O3)c1
834 s	Cc1ccc(CNc2c(-c3ccc(C)c(C)c3)nc3ncccn23)cc1
859 s	Cc1oc(-c2ccc(NC(=O)C3CCCC3)cc2)nc1Cn1cccn1
766 s	CCc1onc(C)c1C1CCCN1C(=O)NCc1ccc(F)cc1 (stereo unspecified)
760 s	COc1ccc(-c2noc(-c3cccnc3N3CCN(Cc4ccccc4)CC3)n2)cc1
631 s	CCc1cc(=O)n(CC(=O)NCc2ccc(OC)cc2)c(N)n1
1090 s	Cc1csc(-c2cc(S(=O)(=O)Nc3cccc(C)c3C)c(C)s2)n1
731 s	Cc1cccc(-c2ncccc2CNS(=O)(=O)c2ccccc2Br)c1
1020 s	Cc1ccccc1-c1noc(C2CCCN2C(=O)CNS(=O)(=O)c2ccc(Cl)cc2)n1 (stereo unspecified)
1260 s	Cc1cc(C)c(S(=O)(=O)N2CCCC2c2nc(-c3ccccc3)no2)cc1C (stereo unspecified)
893 s	Cc1ccc(N2CCC(NC(=O)Cc3ccccc3C)C2=O)cc1C (stereo unspecified)
